Assay results: PubChem BioAssay AID256 (DTP/NCI, 2004)
Where “and” joins values, the source holds several entries; their conditions need not be identical. Identical values can stand only once. Inconclusive results and toxic doses are left out. The calls were made as follows: active = survival T/C of 150% or more; inactive = T/C below 125% in these data.

Test system: CD2F1 mice, L1210 leukemia ip, survival T/C
Assay: NCI In Vivo Anticancer Drug Screen. Data for tumor model L1210 Leukemia (intraperitoneal) in CD2F1 (CDF1) mice
Conditions: higher = longer survival
Method in brief: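 Vehicle-treated tumor-bearing mice served as controls (C) for compound-treated mice (T). Reported figure is T divided by C.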

[1] = endpoint: mean survival time, dose: 100.0 mg/kg/injection, schedule: Q04DX002 (ip), vehicle: saline with Tween-80
[2] = endpoint: mean survival time, dose: 200.0 mg/kg/injection, schedule: Q04DX002 (ip), vehicle: saline with Tween-80
[3] = endpoint: mean survival time, dose: 50.0 mg/kg/injection, schedule: Q01DX009 (ip), vehicle: saline
[4] = endpoint: mean survival time, dose: 50.0 mg/kg/injection, schedule: Q04DX003 (ip), vehicle: saline
[5] = endpoint: mean survival time, dose: 100.0 mg/kg/injection, schedule: Q04DX003 (ip), vehicle: saline
[6] = endpoint: mean survival time, dose: 200.0 mg/kg/injection, schedule: Q04DX003 (ip), vehicle: saline
[7] = endpoint: mean survival time, dose: 100.0 mg/kg/injection, schedule: Q04DX003 (ip), vehicle: saline with Tween-80
[8] = endpoint: mean survival time, dose: 200.0 mg/kg/injection, schedule: Q04DX003 (ip), vehicle: saline with Tween-80
[9] = endpoint: mean survival time, dose: 400.0 mg/kg/injection, schedule: Q04DX003 (ip), vehicle: saline with Tween-80
[10] = endpoint: mean survival time, dose: 25.0 mg/kg/injection, schedule: Q01DX009 (ip), vehicle: saline with Tween-80
[11] = endpoint: mean survival time, dose: 50.0 mg/kg/injection, schedule: Q01DX009 (ip), vehicle: saline with Tween-80
[12] = endpoint: mean survival time, dose: 200.0 mg/kg/injection, schedule: Q01DX009 (ip), vehicle: saline with Tween-80
[13] = endpoint: mean survival time, dose: 100.0 mg/kg/injection, schedule: Q01DX009 (ip), vehicle: saline with Tween-80

Measured: T/C

O=C(CN1CCOCC1)Nc1nc(-c2ccc(Cl)cc2)cs1
inactive: endpoint: median survival time, dose: 12.5 mg/kg/injection, schedule: Q01DX009 (ip), vehicle: saline with Tween-80 102 % of control | endpoint: median survival time, dose: 25.0 mg/kg/injection, schedule: Q01DX009 (ip), vehicle: saline with Tween-80 98 % of control | endpoint: median survival time, dose: 50.0 mg/kg/injection, schedule: Q01DX009 (ip), vehicle: saline with Tween-80 98 % of control | endpoint: median survival time, dose: 100.0 mg/kg/injection, schedule: Q01DX009 (ip), vehicle: saline with Tween-80 105 % of control | endpoint: median survival time, dose: 200.0 mg/kg/injection, schedule: Q01DX009 (ip), vehicle: saline with Tween-80 93 % of control

CC(Cl)S(=O)(=O)c1ccccc1 (centres undefined)
inactive: [1] 104 % of control | [2] 96 % of control | endpoint: mean survival time, dose: 400.0 mg/kg/injection, schedule: Q04DX002 (ip), vehicle: saline with Tween-80 96 % of control

CC(C)(C)NC[Si](C)(C)C
inactive: endpoint: mean survival time, dose: 25.0 mg/kg/injection, schedule: Q01DX009 (ip), vehicle: saline 94 % of control | [3] 101 % of control

NNc1ccccc1-c1nc2ccccc2[nH]1
inactive: endpoint: mean survival time, dose: 75.0 mg/kg/injection, schedule: Q01DX001 (ip), vehicle: saline 96 % of control | endpoint: mean survival time, dose: 150.0 mg/kg/injection, schedule: Q01DX001 (ip), vehicle: saline 96 % of control | endpoint: mean survival time, dose: 300.0 mg/kg/injection, schedule: Q01DX001 (ip), vehicle: saline 108 % of control

CC(=O)Nc1ccc(C=O)cc1
inactive: [4] 102 % of control | [5] 100 % of control | [6] 100 % of control

COc1ccc(N2C(=O)CSC2=S)cc1
inactive: [7] 102 % of control | [8] 96 % of control | [9] 102 % of control

Nc1ccc(CCC(=O)Nc2ccc(S(=O)(=O)F)cc2)cc1
inactive: endpoint: mean survival time, dose: 100.0 mg/kg/injection, schedule: Q01DX001 (ip), vehicle: saline 97 % of control | endpoint: mean survival time, dose: 200.0 mg/kg/injection, schedule: Q01DX001 (ip), vehicle: saline 102 % of control | endpoint: mean survival time, dose: 400.0 mg/kg/injection, schedule: Q01DX001 (ip), vehicle: saline 97 % of control

C/C=C\c1ccc(OCCOC(=O)Nc2ccc(C)c([N+](=O)[O-])c2)c(OC)c1
inactive: endpoint: mean survival time, dose: 12.5 mg/kg/injection, schedule: Q01DX009 (ip), vehicle: saline with Tween-80 98 % of control | [10] 92 % of control | [11] 88 % of control and 92 % of control | [12] 88 % of control

Cc1ccc(C(C#N)Nc2ccccc2)cc1 (centres undefined)
inactive: [13] 103 % of control | [7] 100 % of control | [12] 88 % of control | [8] 91 % of control | endpoint: mean survival time, dose: 400.0 mg/kg/injection, schedule: Q01DX009 (ip), vehicle: saline with Tween-80 93 % of control | [9] 97 % of control

CC1(C)N=C(N)N=C(N)N1c1ccc(CCCCc2cccc(S(=O)(=O)F)c2)c(Cl)c1
inactive: endpoint: mean survival time, dose: 2.5 mg/kg/injection, schedule: Q01DX009 (ip), vehicle: saline with Tween-80 98 % of control | endpoint: mean survival time, dose: 5.0 mg/kg/injection, schedule: Q01DX009 (ip), vehicle: saline with Tween-80 104 % of control | endpoint: mean survival time, dose: 6.25 mg/kg/injection, schedule: Q04DX003 (ip), vehicle: saline sonified 89 % of control | endpoint: mean survival time, dose: 10.0 mg/kg/injection, schedule: Q01DX009 (ip), vehicle: saline with Tween-80 103 % of control | endpoint: mean survival time, dose: 12.5 mg/kg/injection, schedule: Q04DX003 (ip), vehicle: saline sonified 93 % of control | endpoint: mean survival time, dose: 20.0 mg/kg/injection, schedule: Q01DX009 (ip), vehicle: saline with Tween-80 112 % of control | endpoint: mean survival time, dose: 25.0 mg/kg/injection, schedule: Q04DX003 (ip), vehicle: saline sonified 96 % of control

Oc1ccc2ccccc2c1
inactive: endpoint: mean survival time, dose: 10.0 mg/kg/injection, schedule: Q04DX003 (ip), vehicle: Klucel (hydroxypropylcellulose) (HPC) 101 % of control | endpoint: mean survival time, dose: 20.0 mg/kg/injection, schedule: Q04DX003 (ip), vehicle: Klucel (hydroxypropylcellulose) (HPC) 96 % of control | endpoint: mean survival time, dose: 40.0 mg/kg/injection, schedule: Q04DX003 (ip), vehicle: Klucel (hydroxypropylcellulose) (HPC) 96 % of control

CCOC(=O)C[Se]CC(=O)OCC
inactive: endpoint: mean survival time, dose: 100.0 mg/kg/injection, schedule: Q01DX001 (ip), vehicle: saline with Tween-80 100 % of control | endpoint: mean survival time, dose: 200.0 mg/kg/injection, schedule: Q01DX001 (ip), vehicle: saline with Tween-80 103 % of control

COc1cccc(/C=C(\C(=O)O)c2cccc(OC)c2)c1
inactive: endpoint: mean survival time, dose: 50.0 mg/kg/injection, schedule: Q04DX002 (ip), vehicle: saline with Tween-80 89 % of control | [1] 86 % of control | [2] 104 % of control

C=Cc1cc(OC)c2c(c1)c(=O)oc1c2cc(OC)c2c(O)ccc(C3OC(C(C)O)C(O)C3O)c21 (centres undefined)
inactive: endpoint: median survival time, dose: 25.0 mg/kg/injection, schedule: Q01DX009 (ip), vehicle: Klucel (hydroxypropylcellulose) (HPC) 112 % of control | endpoint: median survival time, dose: 36.0 mg/kg/injection, schedule: Q01DX009 (ip), vehicle: Klucel (hydroxypropylcellulose) (HPC) 118 % of control | endpoint: median survival time, dose: 50.0 mg/kg/injection, schedule: Q01DX009 (ip), vehicle: Klucel (hydroxypropylcellulose) (HPC) 112 % of control | endpoint: median survival time, dose: 60.0 mg/kg/injection, schedule: Q01DX009 (ip), vehicle: Klucel (hydroxypropylcellulose) (HPC) 109 % of control | endpoint: median survival time, dose: 100.0 mg/kg/injection, schedule: Q01DX009 (ip), vehicle: Klucel (hydroxypropylcellulose) (HPC) 113 % of control and 100 % of control | endpoint: median survival time, dose: 166.7 mg/kg/injection, schedule: Q01DX009 (ip), vehicle: Klucel (hydroxypropylcellulose) (HPC) 116 % of control | endpoint: median survival time, dose: 277.8 mg/kg/injection, schedule: Q01DX009 (ip), vehicle: Klucel (hydroxypropylcellulose) (HPC) 120 % of control | endpoint: median survival time, dose: 400.0 mg/kg/injection, schedule: Q01DX009 (ip), vehicle: Klucel (hydroxypropylcellulose) (HPC) 111 % of control

CC[CH2][Sn]([CH2]CC)([CH2]CC)[O][Sn]([CH2]CC)([CH2]CC)[CH2]CC
inactive: endpoint: mean survival time, dose: 125.0 micrograms/kg/injection, schedule: Q01DX009 (ip), vehicle: saline 95 % of control | endpoint: mean survival time, dose: 250.0 micrograms/kg/injection, schedule: Q01DX009 (ip), vehicle: saline 95 % of control | endpoint: mean survival time, dose: 500.0 micrograms/kg/injection, schedule: Q01DX009 (ip), vehicle: saline 106 % of control | endpoint: mean survival time, dose: 1000.0 micrograms/kg/injection, schedule: Q01DX009 (ip), vehicle: saline 93 % of control

CS(=O)(=O)OCC(O)C(O)COS(C)(=O)=O (centres undefined)
inactive: endpoint: mean survival time, dose: 50.0 mg/kg/injection, schedule: Q01DX007 (ip), vehicle: saline 107 % of control | [3] 101 % of control | endpoint: mean survival time, dose: 50.0 mg/kg/injection, schedule: Q03DX003 (ip), vehicle: saline 104 % of control | [4] 103 % of control | endpoint: mean survival time, dose: 100.0 mg/kg/injection, schedule: Q01DX007 (ip), vehicle: saline 104 % of control | endpoint: mean survival time, dose: 100.0 mg/kg/injection, schedule: Q01DX009 (ip), vehicle: saline sonified 102 % of control | endpoint: mean survival time, dose: 100.0 mg/kg/injection, schedule: Q01DX009 (ip), vehicle: saline 104 % of control | endpoint: mean survival time, dose: 100.0 mg/kg/injection, schedule: Q03DX003 (ip), vehicle: saline 104 % of control | endpoint: mean survival time, dose: 100.0 mg/kg/injection, schedule: Q04DX003 (ip), vehicle: saline sonified 100 % of control | [5] 100 % of control | endpoint: mean survival time, dose: 200.0 mg/kg/injection, schedule: Q01DX007 (ip), vehicle: saline 105 % of control | endpoint: mean survival time, dose: 200.0 mg/kg/injection, schedule: Q01DX009 (ip), vehicle: saline sonified 96 % of control | endpoint: mean survival time, dose: 200.0 mg/kg/injection, schedule: Q01DX009 (ip), vehicle: saline 106 % of control | endpoint: mean survival time, dose: 200.0 mg/kg/injection, schedule: Q03DX003 (ip), vehicle: saline 102 % of control | endpoint: mean survival time, dose: 200.0 mg/kg/injection, schedule: Q04DX003 (ip), vehicle: saline sonified 108 % of control | [6] 114 % of control | endpoint: mean survival time, dose: 400.0 mg/kg/injection, schedule: Q01DX009 (ip), vehicle: saline sonified 100 % of control | endpoint: mean survival time, dose: 400.0 mg/kg/injection, schedule: Q04DX003 (ip), vehicle: saline sonified 102 % of control

C[N+]1(C)CCOC(O)(c2ccc(-c3ccccc3)cc2)C1 (centres undefined)
inactive: endpoint: mean survival time, dose: 3.13 mg/kg/injection, schedule: Q04DX002 (ip), vehicle: saline 98 % of control | endpoint: mean survival time, dose: 6.25 mg/kg/injection, schedule: Q04DX002 (ip), vehicle: saline 91 % of control

CC([NH-])C([NH-])O.O=S(=O)(O)O.[Pt+2] (centres undefined)
active: endpoint: mean survival time, dose: 12.5 mg/kg/injection, schedule: Q04DX003 (ip), vehicle: saline 166 % of control
inactive: endpoint: mean survival time, dose: 25.0 mg/kg/injection, schedule: Q04DX003 (ip), vehicle: saline 103 % of control

O=C(OC/C=C/CCl)c1ccc([N+](=O)[O-])cc1
inactive: [10] 95 % of control | [11] 94 % of control | [13] 91 % of control and 94 % of control
